Reference: publication PMC3313490 (Current Cancer Drug Targets, 2011)
Like-named read-outs stand apart in the source and are kept apart here.

Columns and labels:
porcine liver PMPMEase [1] = target: T1, porcine liver PMPMEase (Sus scrofa, UniProt Q29550); details: for IC50: PMPMEase 1 μg, 15 min pre-incubation at 37°C, RD-PNB substrate
T1 sequence (Q29550 19-566): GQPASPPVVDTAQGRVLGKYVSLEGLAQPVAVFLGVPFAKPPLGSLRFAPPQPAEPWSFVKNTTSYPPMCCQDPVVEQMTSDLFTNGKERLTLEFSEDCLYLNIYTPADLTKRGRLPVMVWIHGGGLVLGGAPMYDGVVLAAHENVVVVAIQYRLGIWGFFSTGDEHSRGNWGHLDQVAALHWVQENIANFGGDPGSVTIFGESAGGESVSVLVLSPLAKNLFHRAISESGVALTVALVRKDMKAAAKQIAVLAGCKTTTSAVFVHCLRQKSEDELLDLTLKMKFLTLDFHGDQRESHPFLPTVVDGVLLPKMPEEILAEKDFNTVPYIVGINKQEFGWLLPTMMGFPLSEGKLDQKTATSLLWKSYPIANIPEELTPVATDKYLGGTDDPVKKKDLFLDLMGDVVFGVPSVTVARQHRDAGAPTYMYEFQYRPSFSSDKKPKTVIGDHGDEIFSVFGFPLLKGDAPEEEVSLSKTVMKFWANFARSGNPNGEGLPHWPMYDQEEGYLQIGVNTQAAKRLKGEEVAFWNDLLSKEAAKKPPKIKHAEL

porcine liver PMPMEase [2] = target: T1, porcine liver PMPMEase; details: for Kobs/[I]: PMPMEase 82.5 μg, pre-incubation 0-30 min, 100-fold dilution, RD-PNB substrate
[3] = test system: human neuroblastoma SH-SY5Y cells; assay: Cell degeneration by microscopy images of treated cells; type: cell-based; details: 24 h exposure, up to 200 μM
[4] = test system: human neuroblastoma SH-SY5Y cells; type: cell-based; details: for EC50: read-out: EC50 cell viability

Molecule	IC50 (porcine liver PMPMEase [1]) [nM]	Kobs/[I] (porcine liver PMPMEase [2]) [M⁻¹ s⁻¹]	Cell degeneration observed [3]	IC50 fold lower relative to PMSF (porcine liver PMPMEase [1]) [fold]	Kobs/[I] fold higher relative to PMSF (porcine liver PMPMEase [2])	other results
CCCCCCCCCCSCCS(=O)(=O)F [Compound L-52, Decanylthioethanesulfonyl fluoride]	130	1800	–	–	–	–
O=S(=O)(F)Cc1ccccc1 [PMSF, phenylmethylsulfonyl fluoride, reference compound]	–	–	did not show degeneration even at 200 μM	–	–	Effect on viability of cultured cells ([4]; 24 h exposure): no significant effect
O=S(=O)(F)CCSc1ccccc1 [Compound L-50, Phenylthioethanesulfonyl fluoride]	66	180	–	–	–	–
CC(C)=CCC/C(C)=C/CC/C(C)=C/CSCCS(=O)(=O)F [Compound L-28, 2-trans, trans-Farnesylthioethanesulfonyl fluoride]	48	2000	extensive degeneration	37	> 330 fold	EC50 ([4]; 24 h exposure, serum-free DMEM/F12): 66.5 µM; EC50 ([4]; 48 h exposure, serum-free DMEM/F12): 24.3 µM; EC50 ([4]; 72 h exposure, serum-free DMEM/F12): 13.6 µM
O=S(=O)(F)CCSCc1ccccc1 [Compound L-51, Benzylthioethanesulfonyl fluoride]	47	350	–	–	–	Kobs/[I] fold lower than that for L-28 (porcine liver PMPMEase [2]; relative to L-28): over 5 fold
2-trans-Geranylthioethanesulfonyl fluoride [Compound L-23]	–	4100	extensive degeneration	56	over 680 fold	EC50 [4]: 144 µM
